Where two headings read alike, the source gives them in different places.
Experiments:
[1] = tested on: neutrophil gelatinase-associated lipocalin (NGAL); test: Kidney NGAL immunohistochemistry in fluvastatin-fed mice given mevalonate and lipopolysaccharide (Example 6); format: in vivo, mouse; conditions: mevalonate 30 mg/kg i.p. 4 days
Method: (§1) In order to examine whether administration of an isoprenoid-based compound reduces statin-induced adverse effects even in vivo, 100 mg of statin (fluvastatin) was added to 1 kg of feed, and the mixture was fed to 8-week-old C57BL6/J mice for 14 days. Subsequently, mevalonate was administered intraperitoneally to the mice at a dose of 30 mg per kg of mouse body weight for 4 consecutive days, and then lipopolysaccharide (SIGMA) was administered intraperitoneally to mice at a lipopolysaccharide dose of 12 mg per kg of mouse body weight, thereby producing oxysterol in the mouse body. 72 hours after administration of the lipopolysaccharide, the mice were euthanized, and then kidney tissue was extracted by performing cardiac perfusion with 4% paraformaldehyde in DPBS (Dulbecco's phosphate-buffered saline). The extracted kidney tissue was subjected to H & E (Hematoxylin & Eosin) staining, PAS (periodic acid-Schiff) staining and immunohistochemistry of neutrophil gelatinase-associated lipocalin (NGAL) that is an early diagnostic marker of acute renal failure, thereby determining whether acute kidney damage and acute renal failure would occur. In addition, the concentrations of total cholesterol, high-density lipoprotein (HDL) and low-density lipoprotein (LDL) were measured.

[2] = tested on: C57BL6/J mice; format: in vivo, mouse; conditions: for therapeutic effect on kidney damage (H & E, PAS): mevalonate 30 mg/kg i.p. 4 days
Method: as §1

[3] = Total cholesterol, HDL and LDL concentrations in mice (Example 6); format: in vivo, mouse; conditions: statin, oxysterol and mevalonate all administered
Method: as §1

[4] = tested on: human kidney tubule cell line HK-2; test: LDH assay of cell death in HK-2 cells treated with statin and/or oxysterol; format: cell-based; conditions: 1 μM zaragozic acid with 10 μg/mL 25-hydroxycholesterol
Method: To analyze the relationship between statins and oxysterols, the human kidney tubule cell line HK-2 (human kidney-2 cell line; ATCC CRL-2190™) was seeded into a 24-well plate at a density of 1×10^5 per well. […] Subsequently, the cells were cultured in an incubator at 37° C. under 5% CO2 for 72 hours, and then the degree of cell death in each well was analyzed using an LDH assay kit (Takara, Cat #. MK401).
In order to examine whether the same results appear even in the presence of various types of oxysteols, an experiment was performed in the same manner as Example 1.1. As statin, 5 μM of atorvastatin was used, and as oxysterols, 0.1 μg/mL of 25-hydroxycholesterol, 7-ketocholesterol, cholesterol 5,6-epoxide, 24-hydroxycholesterol and 27-hydroxycholesterol were used.
In order to examine whether isoprenoid-based compounds can reduce adverse effects which are induced by co-administration of oxysterol and statin, the cell line was treated with oxysterol (0.1 μg/mL of 25-hydroxycholestyerol) and statin (5 μM of atorvastatin) in the same manner as Example 1.1, and treated with 10 μM of farnesyl pyrophosphate, 200 μM of mevalonate or 10 μM of geranylgeranyl pyrophosphate, which is an isoprenoid-based compound.

| SMILES | expression of NGAL ([1]; oxysterol generation induced after administration of statin) | therapeutic effect on expression of NGAL ([1]; oxysterol generation induced without statin) | therapeutic effect on kidney damage (H & E, PAS) ([2]; group with statin and oxysterol co-administered) | therapeutic effect on kidney damage (H & E, PAS) ([2]; kidney damage caused by oxysterol formation, no statin) | damage to kidney tissue ([2]; statin, oxysterol and mevalonate all administered) | concentration of low-density lipoprotein [3] | concentration of total cholesterol [3] | adverse effects / viability of the cells [4] |
| --- | --- | --- | --- | --- | --- | --- | --- | --- |
| CC(O)(CCO)CC(=O)O (centres unmarked) [mevalonate] | the expression of NGAL significantly decreased | showed no significant therapeutic effect | exhibited a significant effect | showed no therapeutic effect | kidney tissue was not damaged | decreased | decreased |  |
| C=C(CC[C@]12O[C@H](C(=O)O)[C@@](O)(C(=O)O)[C@](C(=O)O)(O1)[C@H](OC(=O)/C=C/[C@@H](C)C[C@@H](C)CC)[C@H]2O)[C@@H](OC(C)=O)[C@H](C)Cc1ccccc1 [zaragozic acid] |  |  |  |  |  |  |  | the adverse effects were reduced to some degrees, and thus the viability of the cells increased |
